What was measured:
[1] = test system: HEK293T cells; experiment: Cell viability; assay type: cell-based; settings: siRNA knockdown, etoposide, MTT (Fig. 2E)
[2] = test system: 35S-labeled NRF2; assay type: biochemical; settings: HEK293T cell-free extracts
[3] = test system: NRF2; settings: cited from earlier work
[4] = test system: endogenous KEAP1; experiment: Streptavidin affinity pulldown of GLUE-WTX and Western blot, endogenous KEAP1; assay type: cell-based

## NRF2: transcription factor NF-E2-related factor-2
[1]
  resistance to apoptosis-inducing reagents (conclusion): promote resistance to apoptotic inducing reagents
[2]
  half-life of exogenous NRF2 in cell extracts: ~6 h
[3]
  half-life of exogenous and endogenous NRF2 in intact cells: ~0.333 h

B1: GLUE-WTX: N-terminal streptavidin-binding protein, calmodulin-binding protein, the hemagglutinin epitope (HA), and WTX (protein, UniProt Q5JTC6 1-1135, looked up)
APC membrane recruitment …: METQKDEAAQAKGAAASGSTREQTAEKGAKNKAAEATEGPTSEPSSSGPGRLKKTAMKLFGGKKGICTLPSFFGGGRSKGSGKGSSKKGLSKSKTHDGLSEAAHGPEDVVSEGTGFSLPLPELPCQFPSSQSAHGALETGSRCKTSVAGATEKAVAEKFPSMPKPKKGLKGFFSSIRRHRKSKVTGAEQSEPGAKGPERVRARPHEHVSSAPQVPCFEETFQAPRKENANPQDAPGPKVSPTPEPSPPATEKMACKDPEKPMEACASAHVQPKPAPEASSLEEPHSPETGEKVVAGEVNPPNGPVGDPLSLLFGDVTSLKSFDSLTGCGDIIAEQDMDSMTDSMASGGQRANRDGTKRSSCLVTYQGGGEEMALPDDDDEEEEEEEEVELEEEEEEVKEEEEDDDLEYLWETAQMYPRPNMNLGYHPTTSPGHHGYMLLDPVRSYPGLAPGELLTPQSDQQESAPNSDEGYYDSTTPGFEDDSGEALGLVRRDCLPRDSYSGDALYEFYEPDDSLENSPPGDDCLYDLHGRSSEMFDPFLNFEPFLSSRPPGAMETEEERLVTIQKQLLYWELRREQLEAQEARAREAHAREAHAREAYTREAYGREAYAREAHTWEAHGREARTREAQAREVRCRETQVRETQARQEKPVLEYQMRPLGPSVMGLAAGVSGTSQISHRGITSAFPTTASSEPDWRDFRPLEKRYEGTCSKKDQSTCLMQLFQSDAMFEPDMQEANFGGSPRRAYPTYSPPEDPEEEEVEKEGNATVSFSQALVEFTSNGNLFSSMSCSSDSDSSFTQNLPELPPMVTFDIADVERDGEGKCEENPEFHNDEDLAASLEAFELGYYHKHAFNNYHSRFYQGLPWGVSSLPRYLGLPGLHPRPPPAAMALNRRSRSLDTAETLEMELSNSHLVQGYLESDELQAQQEDSDEEDEEEEEGEWSRDSPLSLYTEPPGAYDWPAWAPCPLPVGPGPAWISPNQLDRPSSQSPYRQATCCIPPMTMSISLSVPESRAPGESGPQLARPSHLHLPMGPCYNLQPQASQSMRARPRDVLLPVDEPSCSSSSGGFSPSPLPQAKPVGITHGIPQLPRVRPEHPQPQPTHYGPSSLDLSKERAEQGASLATSYSSTAMNGNLAK
modifications: streptavidin-binding, calmodulin-binding peptide and HA tags
[4]
  complex with endogenous KEAP1: endogenous KEAP1 forms a complex with GLUE-WTX
